Test results from PubChem BioAssay (NCI).
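The compound was tested at five concentrations on cells cultured in 96-well plates, with a 48-hour exposure period. TGI: total growth inhibition.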

What was measured:
Assay in all cases: NCI anticancer screen, dose series, 48 h
[1] = system: SW-620 colon
[2] = system: A549 NSCLC
[3] = system: EKVX NSCLC
[4] = system: KM12 colon
[5] = system: M14 melanoma
[6] = system: NCI/ADR-RES ovarian
[7] = system: CAKI-1 renal
[8] = system: OVCAR-5 ovarian
[9] = system: SNB-75 CNS
[10] = system: COLO 205 colon
[11] = system: HOP-62 NSCLC
[12] = system: SNB-19 CNS
[13] = system: T-47D breast
[14] = system: HOP-92 NSCLC
[15] = system: A498 renal
[16] = system: U251 CNS
[17] = system: OVCAR-3 ovarian
[18] = system: NCI-H23 lung
[19] = system: SK-MEL-2 melanoma
[20] = system: NCI-H226 lung
[21] = system: BT-549 breast
[22] = system: UACC-62 melanoma
[23] = system: SK-OV-3 ovarian
[24] = system: MDA-MB-435
[25] = system: DU-145 prostate
[26] = system: OVCAR-8 ovarian
[27] = system: SF-268 CNS
[28] = system: SN12C renal
[29] = system: HL-60(TB) leukemia
[30] = system: PC-3 prostate
[31] = system: IGROV1 ovarian
[32] = system: OVCAR-4 ovarian
[33] = system: SF-295 CNS
[34] = system: MDA-N
[35] = system: UACC-257 melanoma
[36] = system: SK-MEL-28 melanoma
[37] = system: MCF7 breast
[38] = system: HS 578T breast
[39] = system: TK-10 renal
[40] = system: HCC-2998 colon
[41] = system: ACHN renal
[42] = system: HT29 colon
[43] = system: 786-0 renal
[44] = system: MALME-3M melanoma
[45] = system: RPMI-8226 leukemia
[46] = system: CCRF-CEM leukemia
[47] = system: K-562 leukemia
[48] = system: MOLT-4 leukemia
[49] = system: LOX IMVI melanoma
[50] = system: HCT-116 colon
[51] = system: UO-31 renal
[52] = system: NCI-H522 lung
[53] = system: MDA-MB-231 breast
[54] = system: HCT-15 colon
[55] = system: NCI-H460 lung
[56] = system: SK-MEL-5 melanoma
[57] = system: SF-539 CNS

For `Cc1ccsc1/C=N/Nc1cc(C)c2cccc(C)c2n1`, the TGI [1] was greater than 100 µM, the TGI [2] was greater than 100 µM and the TGI [3] was greater than 100 µM. For the same compound, the TGI [4] was greater than 100 µM, the TGI [5] was greater than 100 µM and the TGI [6] was greater than 100 µM. The TGI [7] was greater than 100 µM, the TGI [8] was greater than 100 µM and the TGI [9] was greater than 100 µM. The TGI [10] was greater than 100 µM, the TGI [11] was greater than 100 µM and the TGI [12] was greater than 100 µM. It also gave a TGI [13] greater than 100 µM, a TGI [14] greater than 100 µM and a TGI [15] greater than 100 µM. It also gave a TGI [16] greater than 100 µM, a TGI [17] greater than 100 µM and a TGI [18] greater than 100 µM. The TGI [19] was greater than 100 µM, the TGI [20] was greater than 100 µM and the TGI [21] was greater than 100 µM. For the same compound, the TGI [22] was greater than 100 µM, the TGI [23] was greater than 100 µM and the TGI [24] was greater than 100 µM. For the same compound, the TGI [25] was greater than 100 µM, the TGI [26] was greater than 100 µM and the TGI [27] was greater than 100 µM. It also gave a TGI [28] greater than 100 µM, a TGI [29] of 71.2 µM and a TGI [30] greater than 100 µM. The TGI [31] was greater than 100 µM, the TGI [32] was greater than 100 µM and the TGI [33] was greater than 100 µM. It also gave a TGI [34] greater than 100 µM, a TGI [35] greater than 100 µM and a TGI [36] greater than 100 µM. For the same compound, the TGI [37] was greater than 100 µM, the TGI [38] was greater than 100 µM and the TGI [39] was greater than 100 µM. For the same compound, the TGI [40] was greater than 100 µM, the TGI [41] was greater than 100 µM and the TGI [42] was greater than 100 µM. The TGI [43] was greater than 100 µM.

In the case of `COc1ccccc1C1SCC(=O)N1c1ccc(-c2ccc(-n3c(-c4ccccc4)nc4ccccc4c3=O)cc2)cc1` (stereo not drawn), the TGI [1] was greater than 100 µM, the TGI [2] was greater than 100 µM and the TGI [3] was greater than 100 µM. For the same compound, the TGI [4] was greater than 100 µM, the TGI [5] was greater than 100 µM and the TGI [6] was greater than 100 µM. The TGI [7] was greater than 100 µM, the TGI [44] was greater than 100 µM and the TGI [8] was greater than 100 µM. The TGI [9] was greater than 100 µM, the TGI [10] was greater than 100 µM and the TGI [45] was greater than 100 µM. It also gave a TGI [11] greater than 100 µM, a TGI [12] greater than 100 µM and a TGI [13] greater than 100 µM. The TGI [46] was greater than 100 µM, the TGI [15] was greater than 100 µM and the TGI [16] was greater than 100 µM. It also gave a TGI [47] greater than 100 µM, a TGI [17] greater than 100 µM and a TGI [18] greater than 100 µM. It also gave a TGI [48] greater than 100 µM, a TGI [19] greater than 100 µM and a TGI [20] greater than 100 µM. It also gave a TGI [21] greater than 100 µM, a TGI [22] greater than 100 µM and a TGI [23] greater than 100 µM. The TGI [24] was greater than 100 µM, the TGI [49] was greater than 100 µM and the TGI [25] was greater than 100 µM. The TGI [26] was greater than 100 µM, the TGI [50] was greater than 100 µM and the TGI [51] was greater than 100 µM. For the same compound, the TGI [52] was greater than 100 µM, the TGI [27] was greater than 100 µM and the TGI [28] was greater than 100 µM. For the same compound, the TGI [29] was greater than 100 µM, the TGI [53] was greater than 100 µM and the TGI [54] was greater than 100 µM. The TGI [30] was greater than 100 µM, the TGI [31] was greater than 100 µM and the TGI [55] was greater than 100 µM. For the same compound, the TGI [56] was greater than 100 µM, the TGI [33] was greater than 100 µM and the TGI [57] was greater than 100 µM. It also gave a TGI [34] greater than 100 µM, a TGI [35] greater than 100 µM and a TGI [36] greater than 100 µM. The TGI [37] was greater than 100 µM, the TGI [38] was greater than 100 µM and the TGI [39] was greater than 100 µM. It also gave a TGI [40] greater than 100 µM, a TGI [41] greater than 100 µM and a TGI [42] greater than 100 µM. It also gave a TGI [43] greater than 100 µM.
